Legend:
[1] = tested on: antibodies in sera from SARS patients (sera 1a, 1b, 2, 6, 37, 62, London, SARS-yellow, SARS-green); type: binding, human; set-up: Binding of serum 6 to linear peptides of protein X1 of SARS-CoV Urbani / Binding of serum 37 to linear peptides of protein X1 of SARS-CoV Urbani / Binding of serum 6 to looped/cyclic peptide (PEPSCAN-ELISA) / Binding of serum 37 to looped/cyclic peptide (PEPSCAN-ELISA) / Binding of serum 37 to looped/cyclic peptides of protein X1 of SARS-CoV Urbani / Binding of serum 6 to linear peptides of protein X2 / Binding of serum 37 to linear peptides of protein X2 / Binding of serum 37 to looped/cyclic peptides of protein X2 of SARS-CoV Urbani / Binding of serum 6 to linear peptides of protein M of SARS-CoV Urbani / Binding of serum 37 to linear peptides of protein M of SARS-CoV Urbani / Binding of serum 6 to looped/cyclic peptides of protein M of SARS-CoV Urbani / Binding of serum 37 to looped/cyclic peptides of protein M of SARS-CoV Urbani / Binding of serum 6 to linear peptides of protein X3 of SARS-CoV Urbani / Binding of serum 37 to linear peptides of protein X3 of SARS-CoV Urbani / Binding of serum 37 to looped/cyclic peptides of protein X3 of SARS-CoV Urbani / Binding of serum 6 to linear peptides of protein X4 of SARS-CoV Urbani / Binding of serum 37 to linear peptides of protein X4 of SARS-CoV Urbani / Binding of serum 37 to looped/cyclic peptides of protein X4 of SARS-CoV Urbani / Binding of serum 6 to linear peptides of protein X5 of SARS-CoV Urbani / Binding of serum 37 to linear peptides of protein X5 of SARS-CoV Urbani / Binding of serum 37 to looped/cyclic peptides of protein X5 of SARS-CoV Urbani / Binding of serum 6 to linear peptides of protein N of SARS-CoV Urbani / Binding of serum 37 to linear peptides of protein N of SARS-CoV Urbani / Binding of serum 6 to linear peptide (PEPSCAN-ELISA) / Binding of serum 1a to looped/cyclic peptides of protein N of SARS-CoV Urbani / Binding of serum 1b to looped/cyclic peptides of protein N of SARS-CoV Urbani / Binding of serum 2 to looped/cyclic peptides of protein N of SARS-CoV Urbani / Binding of serum 6 to looped/cyclic peptides of protein N of SARS-CoV Urbani / Binding of serum 37 to looped/cyclic peptides of protein N of SARS-CoV Urbani / Binding of serum 62 to looped/cyclic peptides of protein N of SARS-CoV Urbani / Binding of serum London to looped/cyclic peptides of protein N of SARS-CoV Urbani / Binding of serum SARS-green to looped/cyclic peptides of protein N of SARS-CoV Urbani: unit not given here
[2] = tested on: control sera (pooled serum of ten healthy LUMC hospital workers; commercial negative donor pooled serum from the Dutch bloodbank); type: binding, human; set-up: Binding of Control serum LUMC to linear peptides / Binding of Control serum Blood-bank to linear peptides / Binding of Control serum LUMC to looped peptides / Binding of Control Serum Blood-Bank to Looped peptides / Binding of Control serum LUMC to linear peptides of the protein M of SARS-CoV Urbani / Binding of Control serum Blood-bank to linear peptides of the protein M of SARS-CoV Urbani / Binding of Control serum LUMC to looped peptides of the protein M of SARS-CoV Urbani / Binding of Control Serum Blood-Bank to Looped peptides of the protein M of SARS-CoV Urbani: unit not given here
[3] = tested on: rabbit serum obtained by immunizing a rabbit with the SARS-CoV strain Frankfurt 1; type: binding; set-up: Binding of a rabbit serum to linear peptides / Binding of a rabbit serum to looped peptides / Rabbit serum linear peptides / Rabbit serum looped peptides / Binding of a rabbit serum to linear peptides of protein N of SARS-CoV Urbani (Rabbit serum linear peptides) / Binding of a rabbit serum to looped/cyclic peptides of protein N of SARS-CoV Urbani (Rabbit serum looped peptides): unit not given here
[4] = tested on: recombinant human anti-SARS-CoV antibody 03-018; type: binding; set-up: Binding of antibody 03-018 to linear peptides of the N protein of SARS-CoV Urbani / Binding of antibody 03-018 to looped/cyclic peptides of the N protein of SARS-CoV Urbani: unit not given here

Row | Sequence | Binding of serum 1a to linear peptides of protein N of SARS-CoV Urbani [1] | Binding of serum 1a to looped/cyclic peptides of protein N of SARS-CoV Urbani [1] | Binding of serum 1b to linear peptides of protein N of SARS-CoV Urbani [1] | Binding of serum 1b to looped/cyclic peptides of protein N of SARS-CoV Urbani [1] | Binding of serum 2 to linear peptides of protein N of SARS-CoV Urbani [1] | Binding of serum 2 to looped/cyclic peptides of protein N of SARS-CoV Urbani [1] | Binding of serum 6 to linear peptides of protein N of SARS-CoV Urbani [1] | Binding of serum 6 to looped/cyclic peptides of protein N of SARS-CoV Urbani [1] | Binding of serum 37 to linear peptides of protein N of SARS-CoV Urbani [1] | Binding of serum 37 to looped/cyclic peptides of protein N of SARS-CoV Urbani [1] | Binding of serum 62 to linear peptides of protein N of SARS-CoV Urbani [1] | Binding of serum 62 to looped/cyclic peptides of protein N of SARS-CoV Urbani [1] | Binding of serum London to linear peptides of protein N of SARS-CoV Urbani [1] | Binding of serum London to looped/cyclic peptides of protein N of SARS-CoV Urbani [1] | Binding of serum SARS-green to looped/cyclic peptides of protein N of SARS-CoV Urbani [1] | Binding of serum SARS-yellow to looped/cyclic peptides of protein N of SARS-CoV Urbani [1] | Binding of a rabbit serum to linear peptides of protein N of SARS-CoV Urbani (Rabbit serum linear peptides) [3] | Binding of a rabbit serum to looped/cyclic peptides of protein N of SARS-CoV Urbani (Rabbit serum looped peptides) [3] | Binding of antibody 03-018 to linear peptides of the N protein of SARS-CoV Urbani [4] | Binding of antibody 03-018 to looped/cyclic peptides of the N protein of SARS-CoV Urbani [4] | further results
1 | ANKEGIVWVATEGAL | 0.2 | 0.4 | 0.1 | 0.3 | 0.2 | 0.3 | 0.2 | 0.2 | 0.8 | 0.6 | 0.7 | 0.5 | 0.4 | 0.3 | 0.4 | 0.6 | 0.1 | 0.3 | 0.1 | 0.2 | Binding of serum SARS-green to linear peptides of protein N of SARS-CoV Urbani [1]: 0.4; Binding of serum SARS-yellow to linear peptides of protein N of SARS-CoV Urbani [1]: 0.7; Binding of Control Serum Blood-Bank to Looped peptides [2]: 0.5; Binding of Control serum Blood-bank to linear peptides [2]: 0.6; Binding of Control serum LUMC to linear peptides [2]: 0.6; Binding of Control serum LUMC to looped peptides [2]: 0.6
2 | RVRGGDGKMKELSPR | 0.3 | 0.3 | 0.2 | 0.2 | 0.3 | 0.4 | 0.2 | 0.4 | 0.7 | 0.6 | 0.8 | 0.5 | 0.5 | 0.4 | 0.1 | 0.6 | 0.2 | 0.6 | 0.1 | 0.2 | Binding of serum SARS-green to linear peptides of protein N of SARS-CoV Urbani [1]: 0.6; Binding of serum SARS-yellow to linear peptides of protein N of SARS-CoV Urbani [1]: 0.7; Binding of Control Serum Blood-Bank to Looped peptides [2]: 0.7; Binding of Control serum Blood-bank to linear peptides [2]: 0.8; Binding of Control serum LUMC to linear peptides [2]: 0.9; Binding of Control serum LUMC to looped peptides [2]: 0.7
3 | MEVTPSGTWLTYHGA | 0.3 | 0.4 | 0.1 | 0.3 | 0.1 | 0.5 | 0.2 | 0.3 | 0.6 | 0.7 | 0.5 | 0.8 | 0.5 | 0.5 | 0.5 | 0.4 | 0.1 | 0.4 | 0.1 | 0.2 | Binding of serum SARS-green to linear peptides of protein N of SARS-CoV Urbani [1]: 0.2; Binding of serum SARS-yellow to linear peptides of protein N of SARS-CoV Urbani [1]: 0.7; Control Serum Blood-Bank Looped peptides [2]: 0.7; Control serum Blood-bank linear peptides [2]: 0.8; Control serum LUMC linear peptides [2]: 0.6; Control serum LUMC looped peptides [2]: 0.8
4 | RSSSRSRGNSRNSTP | – | 0.2 | – | 0.2 | – | 0.2 | – | 0.1 | – | 0.5 | – | 0.3 | – | 0.3 | 0.2 | 0.3 | 0.1 | 0.2 | 0.1 | 0.2 | Binding of serum 1a to linear peptide (PEPSCAN-ELISA) [1]: 0.3; Binding of serum 1b to linear peptide (PEPSCAN-ELISA) [1]: 0.1; Binding of serum 2 to linear peptide (PEPSCAN-ELISA) [1]: 0.2; Binding of serum 6 to linear peptide (PEPSCAN-ELISA) [1]: 0.2; Binding of serum 37 to linear peptide (PEPSCAN-ELISA) [1]: 0.5; Binding of serum 62 to linear peptide (PEPSCAN-ELISA) [1]: 0.6; Binding of serum London to linear peptide (PEPSCAN-ELISA) [1]: 0.5; Binding of serum SARS-green to linear peptide (PEPSCAN-ELISA) [1]: 0.2; Binding of serum SARS-yellow to linear peptide (PEPSCAN-ELISA) [1]: 0.5; Binding of Control Serum Blood-Bank to Looped peptides [2]: 0.4; Binding of Control serum Blood-bank to linear peptides [2]: 0.9; Binding of Control serum LUMC to linear peptides [2]: 0.8; Binding of Control serum LUMC to looped peptides [2]: 0.4

Source: patent publication US20070128217A1 (priority 2003, published 2007)
